Experimental data published in patent US6713247B1, “Human CNS cell lines and methods of use therefor” (Signal Pharmaceuticials, Inc., priority 1996, dated 2004).

Tests used:
clone E5 = assay: Immunoreactivity of clone E5; assay type: cell-based, human; conditions: clone E5, after differentiation
clone C2 = assay: Effects of EGF and PDGF on proliferation and survival, clone C2; assay type: cell-based, human; conditions: added to growth medium with FGF-2 and 50% CM, EGF 40 ng/mL, PDGF 20 ng/mL
Description: (§1) EGF and PDGF Enhance Proliferation Rate and Cell Survival. To facilitate the expansion of the human CNS clones, we identified factors that increase the proliferation rate and/or cell survival. To examine the effects of EGF and PDGF on the proliferation and survival of the human CNS clones, 40 ng/mL EGF, 20 ng/mL PDGF or both were added to the standard growth medium, which already contained FGF-2 and 50% CM, and total cell number and BrdU uptake and incorporation were assessed as described above. For clone C2, EGF or PDGF addition increased the total cell number (FIG. 11A) by approximately 2-fold. This increase in cell number was due to enhanced cell viability (decreased cell death), since there were only slight increases in proliferation rate (assessed by BrdU uptake and incorporation, FIG. 11B). […] In the case of clone C10, EGF (but not PDGF) addition increased the total cell number (FIG. 12A) by approximately 40%. […] This increase in cell number was due, at least in part, to enhanced proliferation rates; BrdU uptake and incorporation increase about 2-fold with EGF or EGF+PDGF addition (FIG. 12B), and doubling times (based on cell counts as a function of days in vitro, data not shown) decreased from 3 days (no EGF or PDGF addition) to 2 days (EGF+PDGF addition). […]

clone C10 = assay: Effects of EGF and PDGF on proliferation and survival, clone C10; assay type: cell-based, human; conditions: EGF 40 ng/mL, PDGF 20 ng/mL
Description: as §1

Human CNS Line B4 = assay: Effects of growth conditions on neuronal differentiation (morphology), Human CNS Line B4 (Table 3); assay type: cell-based; conditions: clone B4, added to tet
Text: (§2) To promote further neuronal maturation the effects of additional differentiating agents on clone B4 were examined.

clone B4 = assay: Immunoreactivity of clone B4 (BrdU, v-myc, MAP2a/b, GFAP, tau, NR1); assay type: cell-based, human
Text: as §2

## CN(C)[C@@H]1C(O)=C(C(N)=O)C(=O)[C@@]2(O)C(O)=C3C(=O)c4c(O)cccc4[C@@](C)(O)[C@H]3C[C@@H]12 [tetracycline]
Clone E5
  cells stained for GFAP: about 20%
  cells stained for MAP2a/b: about 50%

## PDGF: human recombinant platelet derived growth factor A/B
Clone C2
  increase in total cell number: approximately 2 fold
Clone C10
  effect on total cell number: not

## CCCCCCCCCCCCCC(=O)O[C@@H]1[C@@H](C)[C@@]2(O)[C@@H](C=C(CO)C[C@]3(O)C(=O)C(C)=C[C@@H]23)[C@@H]2C(C)(C)[C@]12OC(C)=O [PMA, phorbol 12-myristate 13-acetate]
Human CNS Line B4
  effect on neuronal differentiation (morphology and immunocytochemical staining): prevented tet from inducing neuronal differentiation
Clone B4
  effect on cell lineage (MAP2a/b and GFAP immunoreactivities): strongly promoted astrocytic differentiation

## Z-Val-Ala-Asp-Ch2F [Z-VAD, reference compound]
Differentiated clone B4; Z-VAD at 80 μM, TNFα 10 ng/mL
  effect on TNFα-induced increase in DNA laddering: blocked the increase in DNA laddering

## TNFα
Differentiated clone B4; TNFα 10 ng/mL
  DNA laddering upon gel analysis: increased DNA laddering
  percentage of apoptotic nuclei: increased
Differentiated clone B4; TNFα 0.05 or 0.2 ng/mL
  effect on neuronal viability: little effect on neuronal viability
